What was measured:
Test in all cases: Kinobeads elution with test compound, mouse brain lysate, MS
Assay type in all cases: binding
Settings in all cases: kinase released from kinobeads by specific elution
EphA5 = EphA5 (Mus musculus, UniProt Q60629)
Method: (§1) This example illustrates competitive elution of proteins bound to kinobeads with non-modified test compounds (see particularly the fourth aspect of the invention). The kinobeads (as described in example 1) were contacted with mouse brains lysate, bound proteins were eluted with various test compounds and the released proteins were analysed by mass spectrometry.
(§2) The kinobeads were contacted with mouse brain lysate under conditions that allow the binding of the proteins in the lysate to the ligands. The binding conditions were close to physiological by choosing suitable buffer conditions preserving the function of the proteins. After removing non-captured proteins through a gentle washing procedure the bound proteins were contacted with a test compound for protein elution.
(§3) Various test compounds (see section 2.7) were used to release bound proteins following these steps:
(§4) 1. Resuspend beads with bound proteins (section 2.4) in 1×DP buffer/0.2% NP-40 as 1:3 slurry (volume/volume). 2. Transfer 20 μl the 1:3 slurry into MoBiTech columns (equivalent to 5 μl of beads). 3. Place the column into an Eppendorf tube and centrifuge it for 15 seconds at 800 rpm at 4° C. Close columns with lower lid. 4. Add 10 μl elution buffer containing 1.0 mM of the test compound (concentration ranges of 0.1 to 1.0 mM are suitable). As a control use elution buffer containing 2% DMSO or 2% DMF dependent on the solvent used for dissolving the test compound. Close column with upper lid. 5. Incubate for 30 minutes at 4° C. in an Eppendorf incubator at 700 rpm. 6. Open column (first top, then bottom), put column back into siliconized tube (SafeSeal Microcentrifuge Tubes, cat. no 11270, Sorenson BioScience, Inc.). To harvest the eluate centrifuge 2 minutes at 2.000 rpm in table top centrifuge at room temperature. The typical volume of the eluate is approximately 15 μl. 7. Add 5 μl 4× NuPAGE SDS Sample Buffer (Invitrogen, NP0007) containing 100 mM DTT (DTT has to be added just prior to use). 8. Incubate for 30 minutes at 50° C. 9. Add 1/10 volume of 200 mg/ml iodoacetamide, incubate for 30 min at room temperature, protect from light. This reaction leads to the alkylation of cysteines for mass spectrometry. 10. Before loading samples onto the gel, centrifuge samples for 5 minutes at 15.000 rpm in order to remove precipitates. 11. For protein separation apply 10 μl sample to NuPAGE 4-12% Bis-Tris gel (Invitrogen, NPO335). 2.6 Preparation of Stock Solutions used in this Protocol
(§5) Search criteria varied depending on which mass spectrometer was used for the analysis.

YESps = test system: YESps
Method: as §1, §2, §3, §4, §5

CDK5 = CDK5 (Mus musculus, UniProt P49615)
CDK5, sequence (P49615 whole entry): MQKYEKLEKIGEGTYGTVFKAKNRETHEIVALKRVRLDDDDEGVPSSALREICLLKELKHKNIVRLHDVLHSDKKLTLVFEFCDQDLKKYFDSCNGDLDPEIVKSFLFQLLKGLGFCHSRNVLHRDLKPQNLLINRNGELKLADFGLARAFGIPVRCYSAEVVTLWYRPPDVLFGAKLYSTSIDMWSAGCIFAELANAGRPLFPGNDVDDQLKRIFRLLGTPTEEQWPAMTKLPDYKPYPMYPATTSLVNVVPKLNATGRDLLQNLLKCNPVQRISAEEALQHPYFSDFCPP
Method: as §1, §2, §3, §4, §5

CaMK2b = CaMK2b (Mus musculus, UniProt P28652)
CaMK2b, sequence (P28652 whole entry): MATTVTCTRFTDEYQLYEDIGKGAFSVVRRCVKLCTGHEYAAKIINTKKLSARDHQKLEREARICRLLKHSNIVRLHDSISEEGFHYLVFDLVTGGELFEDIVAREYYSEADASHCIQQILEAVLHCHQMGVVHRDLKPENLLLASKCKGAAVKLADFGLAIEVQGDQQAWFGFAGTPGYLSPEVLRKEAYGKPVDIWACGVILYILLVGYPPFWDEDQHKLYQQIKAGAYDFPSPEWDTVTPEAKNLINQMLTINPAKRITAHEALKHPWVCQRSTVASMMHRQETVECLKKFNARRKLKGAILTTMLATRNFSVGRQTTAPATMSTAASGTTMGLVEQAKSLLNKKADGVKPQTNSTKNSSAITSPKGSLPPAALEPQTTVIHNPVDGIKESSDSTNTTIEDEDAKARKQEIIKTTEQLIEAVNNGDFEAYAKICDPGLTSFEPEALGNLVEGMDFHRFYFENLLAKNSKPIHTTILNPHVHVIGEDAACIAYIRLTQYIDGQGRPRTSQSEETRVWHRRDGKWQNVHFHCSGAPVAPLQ
Method: as §1, §2, §3, §4, §5

GSK3Aps = molecular target: T1, GSK3Aps (Mus musculus, UniProt Q2NL51)
T1 construct: from tissue; host or cells: mouse brain
Method: as §1, §2, §3, §4, §5

Erk1ps5 = molecular target: T2, Erk1ps5 (Mus musculus, UniProt Q63844)
T2 construct: […]; from tissue; host or cells: mouse brain
T2 sequence (Q63844 2-380 limits assumed): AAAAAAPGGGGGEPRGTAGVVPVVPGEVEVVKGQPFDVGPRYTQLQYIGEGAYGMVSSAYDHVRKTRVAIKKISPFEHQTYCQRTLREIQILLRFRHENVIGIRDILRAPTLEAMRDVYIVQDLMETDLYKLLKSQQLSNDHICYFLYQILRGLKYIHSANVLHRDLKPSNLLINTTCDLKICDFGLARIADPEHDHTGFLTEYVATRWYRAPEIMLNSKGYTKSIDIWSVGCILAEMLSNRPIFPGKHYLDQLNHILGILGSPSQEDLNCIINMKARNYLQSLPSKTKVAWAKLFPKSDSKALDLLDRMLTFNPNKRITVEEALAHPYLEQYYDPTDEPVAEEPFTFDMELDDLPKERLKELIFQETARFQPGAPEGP
Method: as §1, §2, §3, §4, §5

MAP2K1 = molecular target: T3, MAP2K1 (Mus musculus, UniProt P31938)
T3 construct: from tissue; host or cells: mouse brain
T3 sequence (P31938 whole entry): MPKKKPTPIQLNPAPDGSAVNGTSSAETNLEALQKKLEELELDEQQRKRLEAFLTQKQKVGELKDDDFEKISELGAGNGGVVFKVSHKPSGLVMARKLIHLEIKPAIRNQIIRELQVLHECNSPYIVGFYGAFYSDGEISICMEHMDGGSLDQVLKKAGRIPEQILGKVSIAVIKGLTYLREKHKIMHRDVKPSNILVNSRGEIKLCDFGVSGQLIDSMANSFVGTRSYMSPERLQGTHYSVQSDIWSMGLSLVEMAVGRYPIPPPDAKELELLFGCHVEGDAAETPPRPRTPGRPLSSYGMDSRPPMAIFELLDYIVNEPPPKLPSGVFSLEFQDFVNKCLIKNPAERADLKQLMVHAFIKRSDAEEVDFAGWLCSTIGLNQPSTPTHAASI
Method: as §1, §2, §3, §4, §5

AAK1 = AAK1 (Mus musculus, UniProt Q3UHJ0)
AAK1, sequence (Q3UHJ0 whole entry): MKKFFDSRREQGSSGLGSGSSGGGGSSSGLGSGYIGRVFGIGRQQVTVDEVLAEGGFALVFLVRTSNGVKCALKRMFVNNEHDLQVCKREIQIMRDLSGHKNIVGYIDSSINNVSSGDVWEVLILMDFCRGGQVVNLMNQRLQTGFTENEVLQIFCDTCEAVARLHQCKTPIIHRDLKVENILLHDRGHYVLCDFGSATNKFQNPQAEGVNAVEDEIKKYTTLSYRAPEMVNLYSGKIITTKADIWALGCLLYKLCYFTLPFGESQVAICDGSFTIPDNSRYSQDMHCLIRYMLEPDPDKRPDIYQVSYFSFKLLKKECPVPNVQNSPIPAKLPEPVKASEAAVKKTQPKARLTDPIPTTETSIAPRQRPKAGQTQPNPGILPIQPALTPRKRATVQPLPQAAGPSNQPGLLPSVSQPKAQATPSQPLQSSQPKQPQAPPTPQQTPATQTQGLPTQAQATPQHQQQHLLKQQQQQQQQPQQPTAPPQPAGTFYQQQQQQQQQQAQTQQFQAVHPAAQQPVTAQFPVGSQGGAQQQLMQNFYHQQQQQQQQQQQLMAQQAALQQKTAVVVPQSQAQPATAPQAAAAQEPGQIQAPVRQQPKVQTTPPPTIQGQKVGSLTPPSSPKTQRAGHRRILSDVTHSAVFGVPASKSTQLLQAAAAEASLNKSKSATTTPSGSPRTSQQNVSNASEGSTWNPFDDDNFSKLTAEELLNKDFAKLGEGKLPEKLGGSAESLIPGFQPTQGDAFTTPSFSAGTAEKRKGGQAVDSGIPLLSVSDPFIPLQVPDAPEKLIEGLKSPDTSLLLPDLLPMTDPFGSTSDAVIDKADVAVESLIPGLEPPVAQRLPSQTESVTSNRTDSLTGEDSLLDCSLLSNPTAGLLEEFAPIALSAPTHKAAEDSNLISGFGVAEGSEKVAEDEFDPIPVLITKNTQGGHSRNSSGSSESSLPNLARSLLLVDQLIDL
Method: as §1, §2, §3, §4, §5

CaMK2d = molecular target: T4, CaMK2d (Mus musculus, UniProt Q6PHZ2)
T4 construct: […]; from tissue; host or cells: mouse brain
T4 sequence (Q6PHZ2 whole entry): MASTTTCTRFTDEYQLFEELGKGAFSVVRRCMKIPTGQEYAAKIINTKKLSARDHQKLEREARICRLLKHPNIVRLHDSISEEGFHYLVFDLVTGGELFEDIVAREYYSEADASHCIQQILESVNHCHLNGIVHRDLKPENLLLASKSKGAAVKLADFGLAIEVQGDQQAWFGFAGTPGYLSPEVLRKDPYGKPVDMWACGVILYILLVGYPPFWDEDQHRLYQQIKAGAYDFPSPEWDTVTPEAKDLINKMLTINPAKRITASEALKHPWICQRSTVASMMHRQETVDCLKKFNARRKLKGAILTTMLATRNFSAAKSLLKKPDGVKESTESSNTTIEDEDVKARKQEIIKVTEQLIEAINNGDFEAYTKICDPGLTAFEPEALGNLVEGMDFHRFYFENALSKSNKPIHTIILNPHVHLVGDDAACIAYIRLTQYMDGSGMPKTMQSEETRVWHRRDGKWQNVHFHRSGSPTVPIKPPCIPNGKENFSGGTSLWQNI
Method: as §1, §2, §3, §4, §5

FER = FER (Mus musculus, UniProt P70451)
Method: as §1, §2, §3, §4, §5

Erk2 = molecular target: T5, Erk2 (Mus musculus, UniProt P63085)
T5 construct: […]; from tissue; host or cells: mouse brain
T5 sequence (P63085 whole entry): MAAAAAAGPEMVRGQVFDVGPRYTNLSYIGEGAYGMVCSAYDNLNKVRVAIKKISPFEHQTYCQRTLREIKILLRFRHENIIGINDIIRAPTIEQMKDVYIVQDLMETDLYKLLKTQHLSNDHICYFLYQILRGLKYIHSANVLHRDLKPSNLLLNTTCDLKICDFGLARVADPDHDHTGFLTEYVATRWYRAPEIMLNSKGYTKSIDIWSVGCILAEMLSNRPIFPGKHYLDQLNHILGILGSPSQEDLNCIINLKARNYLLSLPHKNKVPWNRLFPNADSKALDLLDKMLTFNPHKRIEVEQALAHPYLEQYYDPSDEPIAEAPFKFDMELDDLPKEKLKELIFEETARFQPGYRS
Method: as §1, §2, §3, §4, §5

EphB2 = molecular target: T6, EphB2 (Mus musculus, UniProt P54763)
T6 sequence (P54763 19-986): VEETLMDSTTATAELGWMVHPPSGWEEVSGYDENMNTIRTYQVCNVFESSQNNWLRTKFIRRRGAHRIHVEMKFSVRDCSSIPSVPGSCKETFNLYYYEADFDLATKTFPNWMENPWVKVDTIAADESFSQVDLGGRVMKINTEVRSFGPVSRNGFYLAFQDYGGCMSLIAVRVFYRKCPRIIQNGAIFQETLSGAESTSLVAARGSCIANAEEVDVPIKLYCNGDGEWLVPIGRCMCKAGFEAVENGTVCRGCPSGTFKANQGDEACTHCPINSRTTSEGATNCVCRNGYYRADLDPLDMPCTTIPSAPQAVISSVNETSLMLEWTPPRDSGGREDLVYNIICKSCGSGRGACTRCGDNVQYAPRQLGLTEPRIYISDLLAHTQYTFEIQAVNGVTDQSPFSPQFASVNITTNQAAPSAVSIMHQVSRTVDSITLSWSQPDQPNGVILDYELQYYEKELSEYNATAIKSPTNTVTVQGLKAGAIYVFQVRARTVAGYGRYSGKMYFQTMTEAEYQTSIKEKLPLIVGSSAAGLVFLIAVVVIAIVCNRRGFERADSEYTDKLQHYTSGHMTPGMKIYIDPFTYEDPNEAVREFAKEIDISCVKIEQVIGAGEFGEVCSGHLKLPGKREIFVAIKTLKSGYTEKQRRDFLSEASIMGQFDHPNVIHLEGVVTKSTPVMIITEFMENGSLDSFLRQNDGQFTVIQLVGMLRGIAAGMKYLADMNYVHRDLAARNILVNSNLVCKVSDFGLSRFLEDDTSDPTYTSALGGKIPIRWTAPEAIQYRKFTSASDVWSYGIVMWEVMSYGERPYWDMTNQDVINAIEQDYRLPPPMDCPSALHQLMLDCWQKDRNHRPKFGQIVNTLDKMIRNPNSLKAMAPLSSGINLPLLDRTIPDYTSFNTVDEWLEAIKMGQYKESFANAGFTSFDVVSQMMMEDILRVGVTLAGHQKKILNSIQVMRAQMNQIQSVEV
Method: as §1, §2, §3, §4, §5

JNK3 = molecular target: T7, JNK3 (Mus musculus, UniProt Q61831)
T7 construct: from tissue; host or cells: mouse brain
T7 sequence (Q61831 whole entry): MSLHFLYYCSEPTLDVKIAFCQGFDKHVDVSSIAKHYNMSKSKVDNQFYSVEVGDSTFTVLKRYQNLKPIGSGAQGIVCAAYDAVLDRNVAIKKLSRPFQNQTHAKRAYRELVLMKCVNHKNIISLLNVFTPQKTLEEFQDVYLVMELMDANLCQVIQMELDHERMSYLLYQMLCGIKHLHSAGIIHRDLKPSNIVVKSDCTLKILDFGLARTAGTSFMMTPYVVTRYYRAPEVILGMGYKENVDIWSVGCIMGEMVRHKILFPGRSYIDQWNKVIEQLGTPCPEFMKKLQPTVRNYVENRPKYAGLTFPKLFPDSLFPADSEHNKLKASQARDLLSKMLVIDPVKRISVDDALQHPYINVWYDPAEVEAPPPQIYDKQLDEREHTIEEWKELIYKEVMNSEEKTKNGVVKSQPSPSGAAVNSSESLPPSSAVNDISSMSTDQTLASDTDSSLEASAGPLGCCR
Method: as §1, §2, §3, §4, §5

EphA5, sequence (Q60629 27-876): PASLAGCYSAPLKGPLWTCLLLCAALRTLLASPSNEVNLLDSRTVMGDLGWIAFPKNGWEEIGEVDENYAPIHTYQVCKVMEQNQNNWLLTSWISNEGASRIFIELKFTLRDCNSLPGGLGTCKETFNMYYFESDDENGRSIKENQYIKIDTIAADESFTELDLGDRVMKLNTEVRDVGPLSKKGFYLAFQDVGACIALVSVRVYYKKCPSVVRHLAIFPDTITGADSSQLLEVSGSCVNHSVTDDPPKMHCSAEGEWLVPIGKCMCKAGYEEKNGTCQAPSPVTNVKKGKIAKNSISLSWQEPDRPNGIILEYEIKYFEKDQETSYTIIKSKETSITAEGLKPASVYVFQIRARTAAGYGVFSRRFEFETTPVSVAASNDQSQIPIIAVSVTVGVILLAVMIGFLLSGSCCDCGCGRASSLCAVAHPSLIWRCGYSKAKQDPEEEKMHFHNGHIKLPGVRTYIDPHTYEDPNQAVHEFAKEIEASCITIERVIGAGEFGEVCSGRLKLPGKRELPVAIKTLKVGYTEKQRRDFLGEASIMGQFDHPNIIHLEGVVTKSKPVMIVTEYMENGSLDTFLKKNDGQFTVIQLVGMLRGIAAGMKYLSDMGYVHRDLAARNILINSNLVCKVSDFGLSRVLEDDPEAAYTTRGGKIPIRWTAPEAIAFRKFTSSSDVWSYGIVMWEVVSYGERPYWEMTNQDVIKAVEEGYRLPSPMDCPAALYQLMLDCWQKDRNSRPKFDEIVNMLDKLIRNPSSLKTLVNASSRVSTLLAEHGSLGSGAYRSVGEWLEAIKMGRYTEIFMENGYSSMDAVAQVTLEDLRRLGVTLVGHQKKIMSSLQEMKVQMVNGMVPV

In the case of `CCCCCCCCCCCCOS(=O)(=O)[O-].[Na+]` [SDS], the “mass spectrometry score, EphA5” value (EphA5) is reported as 246, the “number of identified peptides, EphA5” value (EphA5) is reported as 9 and the “mass spectrometry score, YESps” value (YESps) is reported as 236. The “number of identified peptides, YESps” value (YESps) was 13, the “mass spectrometry score, CDK5” value (CDK5) was 604 and the “number of identified peptides, CDK5” value (CDK5) was 21. The “mass spectrometry score, CaMK2b” value (CaMK2b) was 615, the “number of identified peptides, CaMK2b” value (CaMK2b) was 75 and the “mass spectrometry score, GSK3Aps” value (GSK3Aps) was 585. The “number of identified peptides, GSK3Aps” value (GSK3Aps) was 77, the “mass spectrometry score, Erk1ps5” value (Erk1ps5) was 239 and the “number of identified peptides, Erk1ps5” value (Erk1ps5) was 8. The “mass spectrometry score, MAP2K1” value (MAP2K1) was 90, the “number of identified peptides, MAP2K1” value (MAP2K1) was 4 and the “mass spectrometry score, AAK1” value (AAK1) was 240. The “number of identified peptides, AAK1” value (AAK1) was 32, the “mass spectrometry score, CaMK2d” value (CaMK2d) was 434 and the “number of identified peptides, CaMK2d” value (CaMK2d) was 36. The “mass spectrometry score, FER” value (FER) was 275, the “number of identified peptides, FER” value (FER) was 11 and the “mass spectrometry score, Erk2” value (Erk2) was 1023. For the same compound, the “number of identified peptides, Erk2” value (Erk2) was 102, the “mass spectrometry score, EphB2” value (EphB2) was 437 and the “number of identified peptides, EphB2” value (EphB2) was 19. For the same compound, the “mass spectrometry score, JNK3” value (JNK3) was 447 and the “number of identified peptides, JNK3” value (JNK3) was 27.
